Where “and” joins values, the source holds several entries; their conditions need not be identical. Equal entries are not always repeated. Toxic doses and inconclusive results are not listed. No stated cut-off is given here; in the data, active means T/C of 150% or more; inactive means T/C below 125%.
Test system: L1210 leukemia ip in BDF1 mice, survival T/C
Assay: NCI In Vivo Anticancer Drug Screen. Data for tumor model L1210 Leukemia (intraperitoneal) in B6D2F1 (BDF1) mice
Conditions: higher = longer survival
Summary of the method: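 Survival endpoint. Drug-treated group vs vehicle group, expressed as T divided by C. Tumor passaged by transplantation.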

[1] = endpoint: mean survival time, dose: 100.0 mg/kg/injection, schedule: Q01DX001 (ip), vehicle: saline
[2] = endpoint: mean survival time, dose: 200.0 mg/kg/injection, schedule: Q01DX001 (ip), vehicle: saline
[3] = endpoint: mean survival time, dose: 400.0 mg/kg/injection, schedule: Q01DX001 (ip), vehicle: saline
[4] = endpoint: mean survival time, dose: 100.0 mg/kg/injection, schedule: Q01DX009 (ip), vehicle: Klucel (hydroxypropylcellulose) (HPC)
[5] = endpoint: mean survival time, dose: 200.0 mg/kg/injection, schedule: Q01DX009 (ip), vehicle: Klucel (hydroxypropylcellulose) (HPC)
[6] = endpoint: mean survival time, dose: 400.0 mg/kg/injection, schedule: Q01DX009 (ip), vehicle: Klucel (hydroxypropylcellulose) (HPC)
[7] = endpoint: mean survival time, dose: 60.0 mg/kg/injection, schedule: Q01DX Z (ip), vehicle: methylcellulose (MC)

Measured: T/C

Cc1cccc(N2CCN(C(=S)c3ccccc3)CC2)c1
inactive: [1] 93 % of control | [2] 93 % of control | [3] 98 % of control

CCCC(C)NCCOC(=O)c1ccc(N)cc1 (stereo unspecified)
inactive: endpoint: mean survival time, dose: 75.0 mg/kg/injection, schedule: Q01DX001 (ip), vehicle: saline 95 % of control

CN1C(=O)C(Br)=C(Br)C1=O
inactive: endpoint: mean survival time, dose: 5.0 mg/kg/injection, schedule: Q01DX001 (ip), vehicle: saline 97 % of control | endpoint: mean survival time, dose: 10.0 mg/kg/injection, schedule: Q01DX001 (ip), vehicle: saline 94 % of control

O=C(Oc1c(Cl)cc(Cl)cc1C=Nc1ccc(Cl)cc1)c1ccccc1
inactive: [4] 103 % of control | [5] 104 % of control | [6] 96 % of control

CCCCCCCCCCCCCCCCCC(=O)N/N=C/c1cccc([N+](=O)[O-])c1
inactive: [4] 94 % of control | [5] 96 % of control | [6] 88 % of control

N=C(N)c1ccc(OCCCOc2ccc(C(=N)N)cc2Br)c(Br)c1
inactive: endpoint: mean survival time, dose: 6.25 mg/kg/injection, schedule: Q01DX009 (ip), vehicle: saline 100 % of control | endpoint: mean survival time, dose: 6.25 mg/kg/injection, schedule: Q04DX003 (ip), vehicle: saline 99 % of control | endpoint: mean survival time, dose: 12.5 mg/kg/injection, schedule: Q01DX009 (ip), vehicle: saline 115 % of control | endpoint: mean survival time, dose: 12.5 mg/kg/injection, schedule: Q04DX003 (ip), vehicle: saline 99 % of control | endpoint: mean survival time, dose: 16.5 mg/kg/injection, schedule: Q01DX009 (ip), vehicle: saline 123 % of control | endpoint: mean survival time, dose: 18.0 mg/kg/injection, schedule: Q01DX Z (ip), vehicle: methylcellulose (MC) 110 % of control | endpoint: mean survival time, dose: 25.0 mg/kg/injection, schedule: Q04DX003 (ip), vehicle: saline 92 % of control | endpoint: mean survival time, dose: 27.0 mg/kg/injection, schedule: Q01DX Z (ip), vehicle: methylcellulose (MC) 113 % of control | endpoint: mean survival time, dose: 37.5 mg/kg/injection, schedule: Q01DX009 (ip), vehicle: saline 107 % of control | endpoint: mean survival time, dose: 40.0 mg/kg/injection, schedule: Q01DX Z (ip), vehicle: methylcellulose (MC) 103 % of control | [7] 113 % of control

C[N+](C)(CCCCCCCCCC[N+](C)(C)Cc1ccccc1)Cc1ccccc1
inactive: endpoint: mean survival time, dose: 1.5 mg/kg/injection, schedule: Q01DX009 (ip), vehicle: saline 106 % of control | endpoint: mean survival time, dose: 1.5 mg/kg/injection, schedule: Q04DX003 (ip), vehicle: saline 95 % of control | endpoint: mean survival time, dose: 3.0 mg/kg/injection, schedule: Q01DX009 (ip), vehicle: saline 101 % of control | endpoint: mean survival time, dose: 3.0 mg/kg/injection, schedule: Q04DX003 (ip), vehicle: saline 97 % of control | endpoint: mean survival time, dose: 6.0 mg/kg/injection, schedule: Q01DX009 (ip), vehicle: saline 93 % of control | endpoint: mean survival time, dose: 6.0 mg/kg/injection, schedule: Q04DX003 (ip), vehicle: saline 95 % of control

Nc1ccc(N=Nc2ccc(S(=O)(=O)Nc3ccccn3)cc2)c(N)n1
inactive: [1] 96 % of control | [2] 102 % of control | [3] 105 % of control

S=C(NC1CCCCC1)N1CCC(CCCC2CCN(C(=S)NC3CCCCC3)CC2)CC1
inactive: endpoint: mean survival time, dose: 100.0 mg/kg/injection, schedule: Q01DX009 (ip), vehicle: saline with Tween-80 95 % of control | endpoint: mean survival time, dose: 200.0 mg/kg/injection, schedule: Q01DX009 (ip), vehicle: saline with Tween-80 97 % of control | endpoint: mean survival time, dose: 400.0 mg/kg/injection, schedule: Q01DX009 (ip), vehicle: saline with Tween-80 97 % of control

Clc1nc(N2CC2)nc(N2CC2)n1
inactive: endpoint: mean survival time, dose: 2.5 mg/kg/injection, schedule: Q01DX001 (ip), vehicle: carboxymethylcellulose (CMC) 112 % of control | endpoint: mean survival time, dose: 5.0 mg/kg/injection, schedule: Q01DX001 (ip), vehicle: carboxymethylcellulose (CMC) 112 % of control | endpoint: mean survival time, dose: 10.0 mg/kg/injection, schedule: Q01DX001 (ip), vehicle: carboxymethylcellulose (CMC) 117 % of control | endpoint: mean survival time, dose: 15.0 mg/kg/injection, schedule: Q01DX001 (ip), vehicle: carboxymethylcellulose (CMC) 114 % of control

c1ccc(-c2nc(Oc3ccc(Oc4nc(-c5ccccc5)nc(-c5ccccc5)n4)cc3)nc(-c3ccccc3)n2)cc1
inactive: endpoint: mean survival time, dose: 25.6 mg/kg/injection, schedule: Q04DX002 (ip), vehicle: saline with Tween-80 91 % of control | endpoint: mean survival time, dose: 64.0 mg/kg/injection, schedule: Q04DX002 (ip), vehicle: saline with Tween-80 97 % of control | endpoint: mean survival time, dose: 160.0 mg/kg/injection, schedule: Q04DX002 (ip), vehicle: saline with Tween-80 87 % of control | endpoint: mean survival time, dose: 200.0 mg/kg/injection, schedule: Q04DX003 (ip), vehicle: saline with Tween-80 86 % of control | endpoint: mean survival time, dose: 400.0 mg/kg/injection, schedule: Q04DX002 (ip), vehicle: saline with Tween-80 97 % of control

O=C1OC(=O)C2C1C1(Cl)CC2(Cl)C(Cl)=C1Cl (stereo unspecified)
inactive: endpoint: mean survival time, dose: 75.0 mg/kg/injection, schedule: Q01DX009 (ip), vehicle: other 101 % of control | endpoint: mean survival time, dose: 150.0 mg/kg/injection, schedule: Q01DX009 (ip), vehicle: other 88 % of control

Cc1n(-c2ccccc2)c2ccccc2[n+]1[O-]
inactive: [1] 101 % of control | [2] 101 % of control | [3] 101 % of control

CN(C)c1ccc(/C=C/c2ccnc3ccccc23)cc1
inactive: endpoint: mean survival time, dose: 4.0 mg/kg/injection, schedule: Q01DX Z (ip), vehicle: saline 103 % of control | endpoint: mean survival time, dose: 5.0 mg/kg/injection, schedule: Q01DX010 (ip), vehicle: saline 94 % of control and 100 % of control | endpoint: mean survival time, dose: 6.0 mg/kg/injection, schedule: Q01DX Z (ip), vehicle: saline 103 % of control | endpoint: mean survival time, dose: 8.0 mg/kg/injection, schedule: Q01DX Z (ip), vehicle: saline 103 % of control | endpoint: mean survival time, dose: 10.0 mg/kg/injection, schedule: Q01DX009 (ip), vehicle: saline 93 % of control and 101 % of control | endpoint: mean survival time, dose: 10.0 mg/kg/injection, schedule: Q01DX010 (ip), vehicle: saline 98 % of control | endpoint: mean survival time, dose: 10.0 mg/kg/injection, schedule: Q01DX Z (ip), vehicle: saline 97 % of control | endpoint: mean survival time, dose: 20.0 mg/kg/injection, schedule: Q01DX009 (ip), vehicle: saline 95 % of control and 97 % of control | endpoint: mean survival time, dose: 20.0 mg/kg/injection, schedule: Q01DX010 (ip), vehicle: saline 100 % of control and 91 % of control | endpoint: mean survival time, dose: 40.0 mg/kg/injection, schedule: Q01DX009 (ip), vehicle: saline 95 % of control and 88 % of control | endpoint: mean survival time, dose: 40.0 mg/kg/injection, schedule: Q01DX010 (ip), vehicle: saline 93 % of control and 100 % of control | endpoint: mean survival time, dose: 50.0 mg/kg/injection, schedule: Q01DX001 (ip), vehicle: saline 101 % of control | endpoint: mean survival time, dose: 64.0 mg/kg/injection, schedule: Q01DX010 (iv), vehicle: saline 108 % of control | endpoint: mean survival time, dose: 80.0 mg/kg/injection, schedule: Q01DX009 (ip), vehicle: saline 101 % of control | endpoint: mean survival time, dose: 100.0 mg/kg/injection, schedule: Q01DX001 (ip), vehicle: carboxymethylcellulose (CMC) 103 % of control | [1] 97 % of control | endpoint: mean survival time, dose: 128.0 mg/kg/injection, schedule: Q01DX010 (iv), vehicle: saline 87 % of control | endpoint: mean survival time, dose: 200.0 mg/kg/injection, schedule: Q01DX001 (ip), vehicle: carboxymethylcellulose (CMC) 109 % of control | [2] 103 % of control | endpoint: mean survival time, dose: 256.0 mg/kg/injection, schedule: Q01DX010 (iv), vehicle: saline 92 % of control | endpoint: mean survival time, dose: 400.0 mg/kg/injection, schedule: Q01DX001 (ip), vehicle: carboxymethylcellulose (CMC) 106 % of control | endpoint: mean survival time, dose: 800.0 mg/kg/injection, schedule: Q01DX001 (ip), vehicle: carboxymethylcellulose (CMC) 97 % of control | endpoint: median survival time, dose: 10.0 mg/kg/injection, schedule: Q01DX009 (ip), vehicle: saline 100 % of control and 87 % of control | endpoint: median survival time, dose: 20.0 mg/kg/injection, schedule: Q01DX009 (ip), vehicle: saline 100 % of control and 87 % of control | endpoint: median survival time, dose: 40.0 mg/kg/injection, schedule: Q01DX009 (ip), vehicle: saline 93 % of control and 105 % of control | endpoint: median survival time, dose: 80.0 mg/kg/injection, schedule: Q01DX009 (ip), vehicle: saline 100 % of control and 87 % of control

CC(N=c1nc(N)ccn1C1OC(CO)C(O)C1O)C(=O)O (stereo unspecified)
inactive: endpoint: mean survival time, dose: 200.0 mg/kg/injection, schedule: Q01DX005 (ip), vehicle: saline 120 % of control

Cn1/c(=N/N=C(N)N)ccc2ccccc21
inactive: endpoint: mean survival time, dose: 15.0 mg/kg/injection, schedule: Q01DX Z (ip), vehicle: methylcellulose (MC) 100 % of control | endpoint: mean survival time, dose: 30.0 mg/kg/injection, schedule: Q01DX Z (ip), vehicle: methylcellulose (MC) 108 % of control | endpoint: mean survival time, dose: 30.0 mg/kg/injection, schedule: Q01DX Z (oral), vehicle: methylcellulose (MC) 95 % of control | [7] 107 % of control | endpoint: mean survival time, dose: 60.0 mg/kg/injection, schedule: Q01DX Z (oral), vehicle: methylcellulose (MC) 101 % of control | endpoint: mean survival time, dose: 120.0 mg/kg/injection, schedule: Q01DX Z (ip), vehicle: methylcellulose (MC) 103 % of control | endpoint: mean survival time, dose: 120.0 mg/kg/injection, schedule: Q01DX Z (oral), vehicle: methylcellulose (MC) 97 % of control | endpoint: mean survival time, dose: 240.0 mg/kg/injection, schedule: Q01DX Z (ip), vehicle: methylcellulose (MC) 98 % of control | endpoint: mean survival time, dose: 240.0 mg/kg/injection, schedule: Q01DX Z (oral), vehicle: methylcellulose (MC) 95 % of control | endpoint: mean survival time, dose: 375.0 mg/kg/injection, schedule: Q01DX Z (oral), vehicle: methylcellulose (MC) 95 % of control

Source: PubChem BioAssay AID248 (DTP/NCI, 2004)
